Assays:
EP4 receptors = target: T1, EP4 receptors (Homo sapiens, UniProt P35408); test: Radioligand binding, hEP4; conditions: HEK-293 membranes, competition vs 5 nM [3H]-PGE2
T1 construct: expressed in transfected cells; host or cells: HEK-293 (membrane fraction)
Protocol: Cells Stably Expressing EP1, EP2, EP4 and FP Receptors
HEK-293 cells stably expressing the human or feline FP receptor, or EP1, EP2, or EP4 receptors were washed with TME buffer, scraped from the bottom of the flasks, and homogenized for 30 sec using a Brinkman PT 10/35 polytron. TME buffer was added to achieve a final 40 ml volume in the centrifuge tubes (the composition of TME is 100 mM TRIS base, 20 mM MgCl2, […]; 10N HCl is added to achieve a pH of 7.4).
The cell homogenate was centrifuged at 19000 r.p.m. for 20 min at 4° C. using a Beckman Ti-60 rotor. The resultant pellet was resuspended in TME buffer to give a final 1 mg/ml protein concentration, as determined by Biorad assay. Radioligand binding competition assays vs. [^3H-]17 -phenyl PGF2α (5 nM) were performed in a 100 μl volume for 60 min. Binding reactions were started by adding plasma membrane fraction. The reaction was terminated by the addition of 4 ml ice-cold TRIS-HCl buffer and rapid filtration through glass fiber GF/B filters using a Brandel cell harvester. The filters were washed 3 times with ice-cold buffer and oven dried for one hour.
[^3H-] PGE2 (specific activity 180 Ci mmol) was used as the radioligand for EP receptors. [^3H] […] 17-phenyl PGF2α and non-specific binding determined with 10^−5 M of unlabeled PGE2, or 17-phenyl PGF2α, according to receptor subtype studied.

hEP4/Gqs5 = target: T2, hEP4/Gqs5 (Homo sapiens, UniProt P35408); test: FLIPR calcium signal, hEP4; format: cell-based; conditions: HEK-293(EBNA) cells, read-out: FUNCTIONAL (nm) HEP4
T2 construct: expressed in transfected cells; host or cells: HEK-293(EBNA)
Protocol: (§1) Methods for Flipr™ Studies
(§2) HEK-293(EBNA) cells, stably expressing one type or subtype of recombinant human prostaglandin receptors (prostaglandin receptors expressed: hDP/Gqs5; hEP1; hEP2/Gqs5; hEP3A/Gqi5; hEP4/Gqs5; hFP; hIP; hTP), were cultured in 100 mm culture dishes in high-glucose DMEM medium containing 10% fetal bovine serum, 2 mM 1-glutamine, 250 μg/ml geneticin (G418) and 200 μg/ml hygromycin B as selection markers, and 100 units/ml penicillin G, 100 μg/ml streptomycin and 0.25 μg/ml amphotericin B.
(§3) (b) Calcium Signal Studies on the Flipr™
(§4) Cells were seeded at a density of 5×10^4 cells per well in Biocoat® Poly-D-lysine-coated black-wall, clear-bottom 96-well plates (Becton-Dickinson) and allowed to attach overnight in an incubator at 37° C. Cells were then washed two times with HBSS-HEPES buffer (Hanks Balanced Salt Solution without bicarbonate and phenol red, 20 mM HEPES, pH 7.4) using a Denley Cellwash plate washer (Labsystems). […]
(§5) Cells were excited with an Argon laser at 488 nm, and emission was measured through a 510-570 nm bandwidth emission filter (FLIPR™, Molecular Devices, Sunnyvale, Calif.). […] The peak increase in fluorescence intensity was recorded for each well. […] The peak fluorescence change in each drug-containing well was then expressed relative to the controls. […]

HEP3D = target: T3, HEP3D (Homo sapiens, UniProt P43115); test: Radioligand binding, hEP3D; conditions: competition vs 5 nM [3H]-PGE2
T3 sequence (P43115 1-374 isoform P43115-4): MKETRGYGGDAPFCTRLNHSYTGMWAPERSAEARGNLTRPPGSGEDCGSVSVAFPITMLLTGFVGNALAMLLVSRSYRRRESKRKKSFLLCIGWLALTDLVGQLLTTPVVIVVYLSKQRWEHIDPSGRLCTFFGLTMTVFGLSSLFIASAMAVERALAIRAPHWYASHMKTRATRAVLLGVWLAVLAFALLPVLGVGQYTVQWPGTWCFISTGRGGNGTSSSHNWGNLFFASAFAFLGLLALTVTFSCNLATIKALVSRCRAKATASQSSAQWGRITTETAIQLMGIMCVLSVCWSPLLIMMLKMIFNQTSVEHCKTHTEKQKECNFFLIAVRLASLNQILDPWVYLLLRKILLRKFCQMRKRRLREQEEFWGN

hTP = target: T4, hTP (Homo sapiens, UniProt P21731); test: FLIPR calcium signal, hTP; format: cell-based; conditions: HEK-293(EBNA) cells, read-out: FUNCTIONAL (nm) HTP
T4 construct: expressed in transfected cells; host or cells: HEK-293(EBNA)
T4 sequence (P21731 1-343): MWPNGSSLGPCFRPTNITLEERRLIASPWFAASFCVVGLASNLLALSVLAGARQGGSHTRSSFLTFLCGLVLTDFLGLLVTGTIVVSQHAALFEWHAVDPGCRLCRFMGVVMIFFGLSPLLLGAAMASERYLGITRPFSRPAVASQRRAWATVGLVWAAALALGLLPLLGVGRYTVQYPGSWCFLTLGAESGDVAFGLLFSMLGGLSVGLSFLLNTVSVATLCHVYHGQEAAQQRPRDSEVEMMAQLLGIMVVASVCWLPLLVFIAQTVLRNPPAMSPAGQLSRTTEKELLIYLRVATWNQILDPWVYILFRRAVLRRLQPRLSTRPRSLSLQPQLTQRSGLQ
Protocol: as §1, §2, §3, §4, §5

T1 sequence (P35408 whole entry): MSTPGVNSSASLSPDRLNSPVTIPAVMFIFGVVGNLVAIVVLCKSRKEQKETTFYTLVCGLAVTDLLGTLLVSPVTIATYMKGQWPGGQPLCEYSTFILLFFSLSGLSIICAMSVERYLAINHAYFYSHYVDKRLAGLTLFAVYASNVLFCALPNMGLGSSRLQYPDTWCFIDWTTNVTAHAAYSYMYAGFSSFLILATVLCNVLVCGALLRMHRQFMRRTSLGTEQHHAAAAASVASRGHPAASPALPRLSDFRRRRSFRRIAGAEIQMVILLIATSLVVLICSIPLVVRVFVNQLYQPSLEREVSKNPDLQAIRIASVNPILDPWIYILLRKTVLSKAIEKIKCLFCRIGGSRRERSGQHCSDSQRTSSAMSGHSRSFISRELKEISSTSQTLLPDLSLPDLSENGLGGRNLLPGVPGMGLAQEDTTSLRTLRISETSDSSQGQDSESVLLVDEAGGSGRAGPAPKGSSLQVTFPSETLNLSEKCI
T2 sequence (P35408 whole entry): as above

IC50 (EP4 receptors)	EC50 (hEP4/Gqs5)	IC50 (HEP3D)	EC50 (hTP)	SMILES
170 nM	53 nM	> 10000 nM		O=C(O)CCC/C=C\C[C@H]1C(=O)C(O)C[C@@H]1/C=C/C(O)CCc1sc2ccccc2c1Cl (single isomer, unassigned) [Compound 9H]
200 nM	78 nM	8700 nM	> 10000 nM	O=C(O)CCC/C=C\C[C@H]1C(=O)C(O)C[C@@H]1/C=C/C(O)CCc1sc2ccccc2c1Cl (single isomer, unassigned) [Compound 9L]

Reference: patent US7652063B2, “10-hydroxy-11-dihydroprostaglandin analogs as selective EP4 agonists” (Allergan, Inc., priority 2004, dated 2010)
